In patent publication US20080113900A1, “Pharmaceutical compositions and therapeutic applications for the use of a synthetic vitamin B12 derivative, glutathionylcobalamin” (priority 2006, published 2008):

System: SK-HEP-1 cells
Assay: Protection of endothelial cells from homocysteine-induced cell death (MTS assay)
Assay type: cell-based, human
Conditions: [Hcy] 30 μM; folate 25 μM present; [GSCbl] = 15 μM, [NACCbl] = 12.5 μM, [CNCbl] = 15 μM, [MeCbl] = 12.5 μM, [HOCbl] = 17.5 μM, [NAC] = 45 μM, [GSH] = 100 μM
Experimental: The effect of a constant concentration of NACCbl and GSCbl to protect cells against variable concentrations of homocysteine was assessed. […] Cell viability was determined by MTS® assay. Data shown in FIG. 4 are representative of means ±SE of 6 independent samples. FIG. 4 illustrates that NACCbl (▪) and GSCbl (▴) protect endothelial cells from the effect of homocysteine. […] Cell viability was determined by MTS® assay. […] There was a decrease in protection as homocysteine concentration increased, but there was still ˜60% survival at 50 μM homocysteine.
The data was normalized (log 2 and log 10) as shown in FIGS. 16 and 17 and Tables 16 and 17, respectively, below.

In order of rising “Mean (FIG. 14a, protection of SK-HEP-1 cells from Hcy in the presence of folate)” value:
1. C/C1=C2/[N-][C@H]([C@H](CC(N)=O)[C@@]2(C)CCC(=O)NC[C@@H](C)OP(=O)([O-])O[C@H]2[C@@H](O)[C@@H](n3cnc4cc(C)c(C)cc43)O[C@@H]2CO)[C@]2(C)N=C(/C(C)=C3N=C(/C=C4N=C1[C@@H](CCC(N)=O)C\4(C)C)[C@@H](CCC(N)=O)[C@]\3(C)CC(N)=O)[C@@H](CCC(N)=O)[C@]2(C)CC(N)=O.[Co+3].[OH-] [HOCbl, Hydroxocobalamin, reference compound]  0.9498
2. C/C1=C2/[N-][C@H]([C@H](CC(N)=O)[C@@]2(C)CCC(=O)NC[C@H](C)OP(=O)([O-])O[C@H]2[C@@H](O)[C@@H](n3cnc4cc(C)c(C)cc43)O[C@@H]2CO)[C@]2(C)N=C(/C(C)=C3N=C(/C=C4N=C1[C@@H](CCC(N)=O)C\4(C)C)[C@@H](CCC(N)=O)[C@]\3(C)CC(N)=O)[C@@H](CCC(N)=O)[C@]2(C)CC(N)=O.[CH3-].[Co+3] [MeCbl, Methylcobalamin, reference compound]  1.322
3. N[C@@H](CCC(=O)N[C@@H](CS)C(=O)NCC(=O)O)C(=O)O [GSH, γ-L-Glutamyl-L-cysteinyl-glycine, reference compound]  1.409
